Measured values published in PMC5986654, “Combined HAT/EZH2 modulation leads to cancer-selective cell death” (Oncotarget, 2018).
pIC50: −log10 of the molar value.

Columns and labels:
[1] = target: CBP (Homo sapiens, UniProt Q92793); assay: HAT in vitro assay, 10-dose IC50, CBP; format: biochemical; details: substrate Histone H3, 3 μM Acetyl-CoA; read-out: Compound IC50 CBP
Method: For HAT in vitro assay, MC2884 activity was also tested in vitro and IC50 was calculated as indicated in the scheme. […] Reactions were carried out at 3 μM Acetyl-CoA. Empty cells indicate no inhibition or compound activity that could not be fit to an IC50 curve.

[2] = target: HDAC1 (Homo sapiens, UniProt Q13547); assay: HDAC1 in vitro assay; format: biochemical
Method: The HDAC1 and SIRT1 assays were performed as described previously.

[3] = tested on: neuroblastoma SHSY5Y cells; assay: Cell death induction in SHSY5Y cells; format: cell-based; details: 3 μM, 48 h
Method: When tested in neuroblastoma SHSY5Y cells at tetrahydro-4H -pyran-4-one MC2912 failed in inducing
3 μM for 48 h, MC2884 and its analogues furnished cell death in SHSY5Y cells, whereas its thio-analogue
(Supplementary SAR Table 1). In general, the SHSY5Y similarly to what observed in NB4 cells.
than NB4 cells. Anyway, also in this cell line the death in both cell lines such as MC2910, 2912, 2909,
(MC2909), and bis 3,5-dibromophenyl (MC2910) were acetylation and EZH2 deregulation (SAR Figure 2). In […]
3-phenyl-1-propan-1-one chain at N1 (MC3187), which 3).

[4] = target: T1, CYP1A (Homo sapiens, UniProt P05177); assay: Cytochrome P450 inhibition, CYP1A; format: in vitro ADME; details: human liver microsomes, probe ethoxyresorufin
T1 construct: from tissue; host or cells: human liver microsomes
Method: This provided a dose of 2 mg free base material/kg when Cytochrome p450 inhibition (5 isoform iC50 administered iv in a 5 mL/kg dosing volume. determination) mouse terminal ip pK study ADME-Tox Cytochrome P450 inhibition of Compound MC2884 was given ip at a dose of 2 mg/kg MC2884 using human liver microsomes as an estimation to a group of 24 normally fed male CD1 mice in a 10 mL/ of in vitro metabolism. kg injection volume. Terminal blood samples (> 230 μL) MC2884 (0.1 μM–25 μM) was incubated with were taken under CO2 from groups of 3 mice at each of 8 human liver microsomes and NADPH in the presence time-points post dose (0.083, 0.25, 0.5, 1, 2, 4, 8 and 24 h) of a cytochrome P450 isoform-specific probe substrate. and placed into heparinized tubes. Samples were placed on ice For the CYP2C9, CYP2C19, CYP2D6 and CYP3A4 for no longer than 30 min before centrifugation (10,000 rpm × specific reactions, the metabolites were monitored by 3 min). […]
Cyp2C19 inhibition (0.1 mg/mL) and NADPH (1 mM) in the presence of the probe substrate midazolam (2.5 μM) for 5 min at Six test compound samples at concentrations 37° C. […] For the CYP1A incubations, the reactions microsomes (0.5 mg/mL) and NADPH (1 mM) in the were terminated by methanol, and the formation of the presence of the probe substrate mephenytoin (25 μM) metabolite, resorufin, was monitored by fluorescence for 60 min at 37° C. […]

[5] = target: T2, EZH2 (Homo sapiens, UniProt Q15910); assay: EZH2 methyltransferase in vitro assay; format: biochemical
T2 construct: purchased BPS Biosciences
Method: EZH2 assays were performed following BPS Biosciences instructions and as previously described.

T2 sequence (Q15910 whole entry): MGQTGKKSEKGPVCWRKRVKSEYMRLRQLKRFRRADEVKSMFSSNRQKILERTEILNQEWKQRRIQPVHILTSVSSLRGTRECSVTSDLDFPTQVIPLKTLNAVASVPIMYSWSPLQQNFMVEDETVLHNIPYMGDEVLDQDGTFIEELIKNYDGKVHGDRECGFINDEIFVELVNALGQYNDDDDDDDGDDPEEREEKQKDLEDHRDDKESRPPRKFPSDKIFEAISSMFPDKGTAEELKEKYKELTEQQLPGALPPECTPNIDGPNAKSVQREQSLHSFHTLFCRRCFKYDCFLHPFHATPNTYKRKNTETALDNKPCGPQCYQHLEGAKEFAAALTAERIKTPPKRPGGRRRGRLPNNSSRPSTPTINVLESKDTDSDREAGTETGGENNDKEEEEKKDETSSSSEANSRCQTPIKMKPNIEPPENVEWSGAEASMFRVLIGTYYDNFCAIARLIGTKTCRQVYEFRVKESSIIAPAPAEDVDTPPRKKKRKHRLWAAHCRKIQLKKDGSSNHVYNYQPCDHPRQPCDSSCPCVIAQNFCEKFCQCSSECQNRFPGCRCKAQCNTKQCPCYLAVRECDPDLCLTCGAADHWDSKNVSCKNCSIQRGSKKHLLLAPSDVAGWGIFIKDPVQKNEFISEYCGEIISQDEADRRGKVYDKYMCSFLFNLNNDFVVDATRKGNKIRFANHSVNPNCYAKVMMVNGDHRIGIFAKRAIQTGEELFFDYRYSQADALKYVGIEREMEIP
T2 sequence (O75530 whole entry partner): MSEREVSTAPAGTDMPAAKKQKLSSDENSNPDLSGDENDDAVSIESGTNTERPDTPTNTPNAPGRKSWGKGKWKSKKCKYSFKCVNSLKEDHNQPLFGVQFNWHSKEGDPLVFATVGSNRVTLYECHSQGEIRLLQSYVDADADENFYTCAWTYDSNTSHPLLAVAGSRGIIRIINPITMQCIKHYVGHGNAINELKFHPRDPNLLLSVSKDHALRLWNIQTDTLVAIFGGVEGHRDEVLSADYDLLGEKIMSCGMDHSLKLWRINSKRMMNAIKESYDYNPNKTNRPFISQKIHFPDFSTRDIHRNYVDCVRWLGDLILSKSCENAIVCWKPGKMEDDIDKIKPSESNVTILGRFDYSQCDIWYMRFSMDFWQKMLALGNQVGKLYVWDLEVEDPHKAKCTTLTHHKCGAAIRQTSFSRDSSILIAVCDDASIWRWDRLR
T2 sequence (Q15022 whole entry partner): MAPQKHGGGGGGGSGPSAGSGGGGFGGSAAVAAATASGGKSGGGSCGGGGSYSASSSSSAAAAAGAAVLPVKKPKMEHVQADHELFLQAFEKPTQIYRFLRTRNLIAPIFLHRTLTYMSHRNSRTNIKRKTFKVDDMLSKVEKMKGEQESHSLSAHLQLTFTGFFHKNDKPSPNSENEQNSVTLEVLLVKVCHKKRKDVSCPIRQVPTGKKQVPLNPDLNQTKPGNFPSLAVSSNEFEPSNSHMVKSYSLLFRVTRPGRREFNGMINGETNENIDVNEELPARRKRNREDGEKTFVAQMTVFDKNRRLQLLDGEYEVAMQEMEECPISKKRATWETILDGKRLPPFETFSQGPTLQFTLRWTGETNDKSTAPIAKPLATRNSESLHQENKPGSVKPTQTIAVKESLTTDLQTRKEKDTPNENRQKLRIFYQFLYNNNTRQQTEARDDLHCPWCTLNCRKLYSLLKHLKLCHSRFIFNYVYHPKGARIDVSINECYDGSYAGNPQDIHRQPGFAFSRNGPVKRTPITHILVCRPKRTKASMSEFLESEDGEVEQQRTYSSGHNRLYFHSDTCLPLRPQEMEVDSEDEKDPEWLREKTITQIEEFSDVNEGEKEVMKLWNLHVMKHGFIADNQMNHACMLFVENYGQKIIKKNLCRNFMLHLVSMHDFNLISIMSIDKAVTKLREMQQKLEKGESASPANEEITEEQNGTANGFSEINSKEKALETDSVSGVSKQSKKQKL
T2 sequence (Q09028 whole entry partner): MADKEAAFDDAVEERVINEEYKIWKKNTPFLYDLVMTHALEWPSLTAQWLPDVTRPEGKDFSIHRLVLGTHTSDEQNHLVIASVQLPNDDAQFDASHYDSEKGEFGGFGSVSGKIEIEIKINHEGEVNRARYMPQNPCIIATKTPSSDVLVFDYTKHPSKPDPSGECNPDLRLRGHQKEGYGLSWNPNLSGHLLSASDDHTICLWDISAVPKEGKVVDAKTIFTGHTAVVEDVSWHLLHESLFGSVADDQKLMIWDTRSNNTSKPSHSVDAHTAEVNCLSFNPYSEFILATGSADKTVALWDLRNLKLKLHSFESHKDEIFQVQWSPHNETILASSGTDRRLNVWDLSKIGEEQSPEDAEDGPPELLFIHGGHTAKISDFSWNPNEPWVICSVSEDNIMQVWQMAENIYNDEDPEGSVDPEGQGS
T2 sequence (Q6ZN18 whole entry partner): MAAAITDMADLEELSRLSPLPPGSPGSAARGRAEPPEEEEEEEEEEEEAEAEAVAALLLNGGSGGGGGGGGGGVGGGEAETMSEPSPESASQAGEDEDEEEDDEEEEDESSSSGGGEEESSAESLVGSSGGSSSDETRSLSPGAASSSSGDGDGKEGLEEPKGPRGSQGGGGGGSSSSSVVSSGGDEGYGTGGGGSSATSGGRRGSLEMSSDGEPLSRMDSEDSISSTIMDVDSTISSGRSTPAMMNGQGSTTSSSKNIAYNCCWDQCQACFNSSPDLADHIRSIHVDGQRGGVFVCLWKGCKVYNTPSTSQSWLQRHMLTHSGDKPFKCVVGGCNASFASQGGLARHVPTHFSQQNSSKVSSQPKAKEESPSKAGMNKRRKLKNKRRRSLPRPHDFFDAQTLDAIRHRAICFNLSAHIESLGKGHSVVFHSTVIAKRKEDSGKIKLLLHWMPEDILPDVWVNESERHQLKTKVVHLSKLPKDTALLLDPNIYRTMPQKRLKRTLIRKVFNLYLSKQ
T1 sequence (P05177 2-516 limits assumed): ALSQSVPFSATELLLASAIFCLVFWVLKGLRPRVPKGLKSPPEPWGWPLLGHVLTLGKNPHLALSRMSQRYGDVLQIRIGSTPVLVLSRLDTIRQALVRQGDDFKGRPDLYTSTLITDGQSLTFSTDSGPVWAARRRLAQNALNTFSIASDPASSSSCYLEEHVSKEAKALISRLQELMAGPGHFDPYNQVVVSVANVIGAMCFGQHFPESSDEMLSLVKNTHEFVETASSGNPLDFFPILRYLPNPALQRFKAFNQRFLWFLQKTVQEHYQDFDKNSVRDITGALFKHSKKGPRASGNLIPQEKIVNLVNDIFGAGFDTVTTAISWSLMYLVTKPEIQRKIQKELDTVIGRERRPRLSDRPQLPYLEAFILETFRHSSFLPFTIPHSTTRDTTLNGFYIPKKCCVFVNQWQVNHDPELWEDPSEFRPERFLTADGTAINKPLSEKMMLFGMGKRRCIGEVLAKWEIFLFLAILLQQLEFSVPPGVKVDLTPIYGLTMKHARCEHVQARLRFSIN
Sequence of HDAC1 (Q13547 whole entry): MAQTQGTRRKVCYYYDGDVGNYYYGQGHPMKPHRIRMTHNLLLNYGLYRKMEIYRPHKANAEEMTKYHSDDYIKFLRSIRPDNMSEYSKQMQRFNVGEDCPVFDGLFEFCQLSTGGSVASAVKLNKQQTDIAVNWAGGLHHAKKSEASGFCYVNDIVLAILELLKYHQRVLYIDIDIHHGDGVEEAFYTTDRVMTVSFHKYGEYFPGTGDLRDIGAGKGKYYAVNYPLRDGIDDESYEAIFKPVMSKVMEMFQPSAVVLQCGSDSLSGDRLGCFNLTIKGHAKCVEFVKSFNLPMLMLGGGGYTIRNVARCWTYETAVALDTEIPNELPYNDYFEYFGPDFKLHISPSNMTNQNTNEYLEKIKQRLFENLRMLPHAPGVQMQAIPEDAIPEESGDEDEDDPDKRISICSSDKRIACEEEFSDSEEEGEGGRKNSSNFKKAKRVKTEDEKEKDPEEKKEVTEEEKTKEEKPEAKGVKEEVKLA

Which results are given for `O=C1/C(=C/c2cccc(Br)c2)CN(Cc2ccccc2)C/C1=C\c1cccc(Br)c1` [MC2884]?
pIC50 [1]: 5.49; HDAC modulating action [2]: no activity; % Cell death SHSY5Y cells [3]: 19.1%; pIC50 [4]: < 4.60; inhibition at 5 µM ([5]; 5 μM): ~40%; inhibition at 25 µM ([5]; 25 μM): ~80%
